# Laboratory results from PubChem BioAssay AID2060893 (Molecular Pharmacology Branch, DTP, NCI, 2025).
# System: K86415-001-R-J1-PDC complex spheroids, viability
# Assay: Anticancer human tumor K86415-001-R-J1-PDC patient-derived lung adenocarcinoma cell line growth inhibition [RAS]
# Conditions: for IC50: curve of first compound; for viability, T/C: stronger effect = lower value
# Excerpt: RAS pathway inhibitors in Combinations in Complex Spheroids
# A high-throughput screen of multi-cell type tumor spheroids was designed to identify active combinations of RAS pathway inhibitors and targeted small molecules. Complex spheroids include a stromal component modeled by human endothelial cells (HUVEC) and fibroblasts modeled by human mesenchymal stem cells (MSCs). The concentration ranges selected for each drug and investigational agent were based upon clinically achievable concentrations if the clinical Cmax of the agent was known.
# Compounds. The drugs and investigational agents: abemaciclib (NSC768073), cobimetinib (NSC768068), divarasib (GDC6063, NSC841802), docetaxel (NSC628503), GDC-1971 (RLY-1971, NSC841576), gemcitabine (NSC613327), inavolisib (NSC800729), ipatasertib (NSC767898), KB-0742 (NSC834161), MRTX-1133 (NSC836407), osimertinib (NSC779217), RMC-4630 (NSC839698), RMC-6236 (NSC851965), RMC-6291 (NSC852671), Ro-3306 (NSC812927), sapanisertib (NSC764658), SN-38 (NSC673596), staurosporine (NSC755774), SY5609 (NSC837396), and tovorafenib (DAY101, NSC766906), were obtained from the National Cancer Institute (NCI) Developmental Therapeutics Program Chemical Repository. The FDA-approved anticancer drug set is available from the NCI Developmental Therapeutics Program. […] The stock solutions were prepared in dimethyl sulfoxide (DMSO, Sigma-Aldrich, St. Louis, MO, cat. D2650) at 800-fold the tested concentration and stored at -70 degrees C prior to their use. All drugs and investigational agents were tested over a range starting from a high concentration at or near the clinical Cmax and decreasing in half-log increments. If the clinical Cmax for an agent had not been determined, the highest concentration tested was 10 microM.
# Cell Culture. All cells were maintained in an incubator at 37 degrees C and 5% CO2 with 95% humidity. The PDC lines were cultured according to standard operating procedures established by the NCI PDMR. All PDCs were thawed and cultured in Matrigel-coated flasks prepared with a working solution of 1X Ham's F-12 nutrient mix, without supplementation (Invitrogen, Waltham, MA, cat. 11765054), 100 U/mL penicillin-streptomycin (Invitrogen, cat. 15140122), and 2.5% Matrigel (Corning Inc., Corning, NY, cat. 354248) for the first three passages. The 362531-283-R-J2-PDC and 782815-120-R-J1-PDC lines were cultured in 6C/Colon 1B media, which includes advanced DMEM/F-12 (Thermo Fisher Scientific, cat. 12634028), 10 mM HEPES (Thermo Fisher Scientific, cat. 15630080), 1X GlutaMAX supplement (Thermo Fisher Scientific, cat. 35050061), 0.1 mg/mL primocin (InvivoGen, San Diego, CA, cat. ant-pm-2), 10% defined fetal bovine serum, heat inactivated (HyClone Laboratories Inc., Logan, UT, cat. SH30070.03HI), 50% L-WRN conditioned media (ATCC, cat. CRL-3276), 1.25 mM N-Acetyl-L-cysteine (Sigma-Aldrich, cat. A9165), 10 mM nicotinamide (Sigma-Aldrich, cat. N0636), 1X B-27 supplement (Thermo Fisher Scientific, cat. 17504044), 1X N-2 supplement (Thermo Fisher Scientific, cat. 17502048), 50 ng/mL human EGF (Thermo Fisher Scientific, cat. PHG0311), and 10 microM Y-27632 dihydrochloride (Tocris Bioscience, cat. 1254). The K12877-001-R-J1-PDC line was cultured in 6I media, which includes all 6C/Colon 1B media plus 10 ng/mL human FGF-10 (PeproTech, cat. 100-26), 1 ng/mL human FGF-2 (PeproTech, cat. 100-18B), 1 µM prostaglandin E2 (Tocris Bioscience, cat. 2296), […] hydrocortisone (Sigma-Aldrich, cat. H4001), and […] bovine insulin (Sigma-Aldrich, cat. I6634). The K86415-001-R-J1-PDC line was cultured in 6D media, which includes all 6C/Colon 1B media components minus the L-WRN conditioned media. The 485176-168-R4-J1-PDC was cultured in PANC media, which includes all 6C/Colon 1B media plus 100 ng/mL human FGF-10 (PeproTech, cat. 100-26), 500 nM SB-431542 (Selleckchem, cat. S1067), and 10 nM gastrin (Tocris Bioscience, cat. 3006). […]
# [1] = second compound 0.0316 µM, first compound 0.0316 µM
# [2] = second compound 0.0316 µM, first compound 0.1 µM
# [3] = second compound 0.0316 µM, first compound 0.316 µM
# [4] = second compound 0.0316 µM, first compound 1 µM
# [5] = second compound 0.0316 µM, first compound 3.16 µM
# [6] = second compound 0.0316 µM, first compound 10 µM
# [7] = second compound 0.1 µM, first compound 0.0316 µM
# [8] = second compound 0.1 µM, first compound 0.1 µM
# [9] = second compound 0.1 µM, first compound 0.316 µM
# [10] = second compound 0.1 µM, first compound 1 µM
# [11] = second compound 0.1 µM, first compound 3.16 µM
# [12] = second compound 0.1 µM, first compound 10 µM
# [13] = second compound 0.316 µM, first compound 0.0316 µM
# [14] = second compound 0.316 µM, first compound 0.1 µM
# [15] = second compound 0.316 µM, first compound 0.316 µM
# [16] = second compound 0.316 µM, first compound 1 µM
# [17] = second compound 0.316 µM, first compound 3.16 µM
# [18] = second compound 0.316 µM, first compound 10 µM
# [19] = second compound 1 µM, first compound 0.0316 µM
# [20] = second compound 1 µM, first compound 0.1 µM
# [21] = second compound 1 µM, first compound 0.316 µM
# [22] = second compound 1 µM, first compound 1 µM
# [23] = second compound 1 µM, first compound 3.16 µM
# [24] = second compound 1 µM, first compound 10 µM
# [25] = second compound 3.16 µM, first compound 0.0316 µM
# [26] = second compound 3.16 µM, first compound 0.1 µM
# [27] = second compound 3.16 µM, first compound 0.316 µM
# [28] = second compound 3.16 µM, first compound 1 µM
# [29] = second compound 3.16 µM, first compound 3.16 µM
# [30] = second compound 3.16 µM, first compound 10 µM
# [31] = second compound 10 µM, first compound 0.0316 µM
# [32] = second compound 10 µM, first compound 0.1 µM
# [33] = second compound 10 µM, first compound 0.316 µM
# [34] = second compound 10 µM, first compound 1 µM
# [35] = second compound 10 µM, first compound 3.16 µM
# [36] = second compound 10 µM, first compound 10 µM
# 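Note: spheroids exposed to agents for seven days before readout.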
smiles,measurement,setting,value
CC1(O)CCCC1n1c(=O)c(C(F)F)cc2cnc(NC3CCN(S(C)(=O)=O)CC3)nc21 (stereo unspecified) + C#Cc1c(F)ccc2cc(O)cc(-c3ncc4c(N5CC6CCC(C5)N6)nc(OCC56CCCN5CC(F)C6)nc4c3F)c12,IC50,second compound 0.0316 µM,4.56 µM
same,IC50,second compound 0.1 µM,4.58 µM
same,IC50,second compound 0.316 µM,4.3 µM
same,IC50,second compound 1 µM,4.02 µM
same,IC50,second compound 3.16 µM,< 0.0316 µM
same,IC50,second compound 10 µM,< 0.0316 µM
same,"viability, T/C",[1],86.2%
same,"viability, T/C",[2],71.4%
same,"viability, T/C",[3],59%
same,"viability, T/C",[4],79.4%
same,"viability, T/C",[5],70%
same,"viability, T/C",[6],7.15%
same,"viability, T/C",[7],78.2%
same,"viability, T/C",[8],68.4%
same,"viability, T/C",[9],57.9%
same,"viability, T/C",[10],64.6%
same,"viability, T/C",[11],80.6%
same,"viability, T/C",[12],8.13%
same,"viability, T/C",[13],74.2%
same,"viability, T/C",[14],63.3%
same,"viability, T/C",[15],55%
same,"viability, T/C",[16],67.9%
same,"viability, T/C",[17],67.1%
same,"viability, T/C",[18],8.09%
same,"viability, T/C",[19],65.3%
same,"viability, T/C",[20],62.4%
same,"viability, T/C",[21],53.6%
same,"viability, T/C",[22],54.5%
same,"viability, T/C",[23],70.7%
same,"viability, T/C",[24],6.85%
same,"viability, T/C",[25],28.2%
same,"viability, T/C",[26],28.9%
same,"viability, T/C",[27],29%
same,"viability, T/C",[28],43.6%
same,"viability, T/C",[29],59.4%
same,"viability, T/C",[30],5.28%
same,"viability, T/C",[31],15.6%
same,"viability, T/C",[32],16.1%
same,"viability, T/C",[33],21.9%
same,"viability, T/C",[34],25.9%
same,"viability, T/C",[35],30.2%
same,"viability, T/C",[36],2.97%
CCN1CCN(Cc2ccc(Nc3ncc(F)c(-c4cc(F)c5nc(C)n(C(C)C)c5c4)n3)nc2)CC1 + C#Cc1c(F)ccc2cc(O)cc(-c3ncc4c(N5CC6CCC(C5)N6)nc(OCC56CCCN5CC(F)C6)nc4c3F)c12,IC50,second compound 0.0316 µM,> 1 µM
same,IC50,second compound 0.1 µM,> 1 µM
same,IC50,second compound 0.316 µM,> 1 µM
same,IC50,second compound 1 µM,0.0271 µM
same,IC50,second compound 3.16 µM,< 0.00316 µM
same,IC50,second compound 10 µM,< 0.00316 µM
same,"viability, T/C","second compound 0.0316 µM, first compound 0.00316 µM",93.1%
same,"viability, T/C","second compound 0.0316 µM, first compound 0.01 µM",89%
same,"viability, T/C",[1],77.4%
same,"viability, T/C",[2],67.5%
same,"viability, T/C",[3],66.3%
same,"viability, T/C",[4],67.4%
same,"viability, T/C","second compound 0.1 µM, first compound 0.00316 µM",90.9%
same,"viability, T/C","second compound 0.1 µM, first compound 0.01 µM",80.5%
same,"viability, T/C",[7],72.3%
same,"viability, T/C",[8],61.7%
same,"viability, T/C",[9],57.4%
same,"viability, T/C",[10],70.7%
same,"viability, T/C","second compound 0.316 µM, first compound 0.00316 µM",92%
same,"viability, T/C","second compound 0.316 µM, first compound 0.01 µM",79.3%
same,"viability, T/C",[13],67.1%
same,"viability, T/C",[14],55.8%
same,"viability, T/C",[15],50.3%
same,"viability, T/C",[16],61%
same,"viability, T/C","second compound 1 µM, first compound 0.00316 µM",62%
same,"viability, T/C","second compound 1 µM, first compound 0.01 µM",54.7%
same,"viability, T/C",[19],49%
same,"viability, T/C",[20],44.5%
same,"viability, T/C",[21],45.2%
same,"viability, T/C",[22],53.5%
same,"viability, T/C","second compound 3.16 µM, first compound 0.00316 µM",39.5%
same,"viability, T/C","second compound 3.16 µM, first compound 0.01 µM",34.9%
same,"viability, T/C",[25],28.4%
same,"viability, T/C",[26],26.1%
same,"viability, T/C",[27],30.9%
same,"viability, T/C",[28],38.9%
same,"viability, T/C","second compound 10 µM, first compound 0.00316 µM",14.3%
same,"viability, T/C","second compound 10 µM, first compound 0.01 µM",15.6%
same,"viability, T/C",[31],14.1%
same,"viability, T/C",[32],19%
same,"viability, T/C",[33],22.1%
same,"viability, T/C",[34],22.2%
C[C@@H](NC(=O)c1ncnc(N)c1Cl)c1ncc(C(=O)Nc2cc(C(F)(F)F)c(Cl)cn2)s1 + C#Cc1c(F)ccc2cc(O)cc(-c3ncc4c(N5CC6CCC(C5)N6)nc(OCC56CCCN5CC(F)C6)nc4c3F)c12,IC50,second compound 0.0316 µM,> 10 µM
same,IC50,second compound 0.1 µM,> 10 µM
same,IC50,second compound 0.316 µM,> 10 µM
same,IC50,second compound 1 µM,7.33 µM
same,IC50,second compound 3.16 µM,0.183 µM
same,IC50,second compound 10 µM,< 0.0316 µM
same,"viability, T/C",[1],107%
same,"viability, T/C",[2],115%
same,"viability, T/C",[3],104%
same,"viability, T/C",[4],81.1%
same,"viability, T/C",[5],61.1%
same,"viability, T/C",[6],56.5%
same,"viability, T/C",[7],113%
same,"viability, T/C",[8],112%
same,"viability, T/C",[9],93%
same,"viability, T/C",[10],79.9%
same,"viability, T/C",[11],67.5%
same,"viability, T/C",[12],56.8%
same,"viability, T/C",[13],119%
same,"viability, T/C",[14],108%
same,"viability, T/C",[15],88.8%
same,"viability, T/C",[16],79.8%
same,"viability, T/C",[17],65.5%
same,"viability, T/C",[18],53.6%
same,"viability, T/C",[19],83.9%
same,"viability, T/C",[20],85.9%
same,"viability, T/C",[21],69.1%
same,"viability, T/C",[22],69%
same,"viability, T/C",[23],59.7%
same,"viability, T/C",[24],46.3%
same,"viability, T/C",[25],46.9%
same,"viability, T/C",[26],53.5%
same,"viability, T/C",[27],52.3%
same,"viability, T/C",[28],42.6%
same,"viability, T/C",[29],38.4%
same,"viability, T/C",[30],30.2%
same,"viability, T/C",[31],19.5%
same,"viability, T/C",[32],26%
same,"viability, T/C",[33],23.1%
same,"viability, T/C",[34],18.2%
same,"viability, T/C",[35],19.6%
same,"viability, T/C",[36],15.3%
